Measured values from ChEMBL document CHEMBL1201862, “PubChem BioAssay data set” (2004).
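Briefly, cells in 96-well plates were exposed to five compound concentrations for 48 h, and endpoints were estimated by linear interpolation. GI50 is the concentration that inhibits growth by half.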 The source made the active and inactive calls. Cut-off read from the data, not from the text of the source: active = GI50 up to about 1.1 µM and inactive = higher.

Columns and labels:
Assay in all cases: NCI-60 cell line screen, 48 h
TK-10 = test system: TK-10
HCT-15 = test system: HCT-15
SN12C = test system: SN12C
LXFL 529 = test system: LXFL 529
NCI-H23 = test system: NCI-H23
DLD-1 = test system: DLD-1
K562 = test system: K562
DU-145 = test system: DU-145
Malme-3M = test system: Malme-3M
SK-OV-3 = test system: SK-OV-3
SK-MEL-2 = test system: SK-MEL-2
LOX IMVI = test system: LOX IMVI
OVCAR-8 = test system: OVCAR-8
CCRF-CEM = test system: CCRF-CEM
SNB-75 = test system: SNB-75
RXF 393 = test system: RXF 393

| SMILES | GI50 (TK-10) | GI50 (HCT-15) | GI50 (SN12C) | GI50 (LXFL 529) | GI50 (NCI-H23) | GI50 (DLD-1) | GI50 (K562) | GI50 (DU-145) | GI50 (Malme-3M) | GI50 (SK-OV-3) | GI50 (SK-MEL-2) | GI50 (LOX IMVI) | GI50 (OVCAR-8) | GI50 (CCRF-CEM) | GI50 (SNB-75) | GI50 (RXF 393) |
| --- | --- | --- | --- | --- | --- | --- | --- | --- | --- | --- | --- | --- | --- | --- | --- | --- |
| C=C=C(Sc1ccccc1)C(C)(C)OC(C)=O | 32.5 µM (inactive) | 20.6 µM | 16.2 µM (inactive) | 18.2 µM (inactive) | 17.2 µM (inactive) | 16.5 µM (inactive) | 22.1 µM (inactive) | 27.2 µM (inactive) | 18.3 µM (inactive) | 25.1 µM (inactive) | 17.9 µM (inactive) | 16.5 µM (inactive) | 20.2 µM (inactive) | 20.2 µM (inactive) | 21.2 µM (inactive) | 14.7 µM (inactive) |
| O=C(O)C(SC(=S)c1ccc(C(=S)SC(C(=O)O)c2ccccc2)cc1)c1ccccc1 (stereo unspecified) | > 100 µM (inactive) | 42.2 µM | > 100 µM (inactive) | 50.8 µM (inactive) | > 100 µM (inactive) | > 100 µM (inactive) | 44.5 µM (inactive) |  | > 100 µM (inactive) | > 100 µM (inactive) | > 100 µM (inactive) | 50.6 µM (inactive) | > 100 µM (inactive) | > 100 µM (inactive) | 35 µM (inactive) | > 100 µM (inactive) |
| O=C(O)C1CC2C=CCC(C2)C1 (stereo unspecified) | > 100 µM (inactive) | > 100 µM |  | > 100 µM (inactive) | > 100 µM (inactive) | > 100 µM (inactive) | > 100 µM (inactive) |  | > 100 µM (inactive) | > 100 µM (inactive) | 91.8 µM (inactive) | > 100 µM (inactive) | > 100 µM (inactive) | > 100 µM (inactive) | > 100 µM (inactive) | > 100 µM (inactive) |
| C[N+](C)(C)CC1CCC(C[N+](C)(C)C)C1=NO (stereo unspecified) |  | > 100 µM | > 100 µM (inactive) | > 100 µM (inactive) | > 100 µM (inactive) | > 100 µM (inactive) | > 100 µM (inactive) |  | > 100 µM (inactive) | > 100 µM (inactive) | > 100 µM (inactive) | > 100 µM (inactive) | > 100 µM (inactive) | > 100 µM (inactive) | > 100 µM (inactive) | > 100 µM (inactive) |
| CCN(CC)c1c(C(=O)/C=C/c2ccc(Cl)cc2)c(-c2ccccc2)nn(C)c1=O | 2.14 µM (inactive) | 1.69 µM | 2.1 µM (inactive) | 1.85 µM (inactive) | 1.68 µM (inactive) | 1.73 µM (inactive) | 2.54 µM (inactive) |  | 2.22 µM (inactive) | 3.94 µM (inactive) | 1.93 µM (inactive) | 1.9 µM (inactive) | 1.64 µM (inactive) | 1.97 µM (inactive) | 2.97 µM (inactive) | 1.47 µM (inactive) |
| C1=CCN(c2ccccc2)CC1 | 40 µM (inactive) | 14.8 µM | 26.3 µM (inactive) | 18.6 µM (inactive) | 31.5 µM (inactive) | 15.5 µM (inactive) | 30.1 µM (inactive) |  | 22.6 µM (inactive) | > 100 µM (inactive) | 39.1 µM (inactive) | 43.9 µM (inactive) | 27 µM (inactive) | 6.38 µM (inactive) | 33.1 µM (inactive) | 12.2 µM (inactive) |
| O=C(O)/C(O)=C1/C=C(c2ccccc2)c2ccccc21 | 31.6 µM (inactive) | 22.2 µM | 23.8 µM (inactive) | 27.5 µM (inactive) |  | 30.1 µM (inactive) | 26.1 µM (inactive) |  | 25.5 µM (inactive) | 30.4 µM (inactive) | 16.7 µM (inactive) | 17.9 µM (inactive) | 23.9 µM (inactive) | 18.7 µM (inactive) | 22 µM (inactive) | 19.4 µM (inactive) |
| CCCCCCCCCCNCCSSCc1ccc(Cl)cc1 | 2.18 µM (inactive) | 2.48 µM | 1.91 µM (inactive) | 1.56 µM (inactive) |  | 2.07 µM (inactive) | 1.24 µM (inactive) |  | 2.95 µM (inactive) | 3.84 µM (inactive) | 0.352 µM (active) | 1.92 µM (inactive) | 2.07 µM (inactive) | 1.64 µM (inactive) | 5.86 µM (inactive) | 3.3 µM (inactive) |
| COc1cc(C(=O)CC2OC(=O)C(Cl)=C2Cl)ccc1Cl (stereo unspecified) | > 100 µM (inactive) | > 100 µM | > 100 µM (inactive) | > 100 µM (inactive) | > 100 µM (inactive) | > 100 µM (inactive) | > 100 µM (inactive) |  | > 100 µM (inactive) | > 100 µM (inactive) | > 100 µM (inactive) | > 100 µM (inactive) | > 100 µM (inactive) | 69 µM (inactive) | > 100 µM (inactive) | > 100 µM (inactive) |
| COc1ccc(-c2cc(N3CCN(c4ccccc4)CC3)c(C#N)c(=O)o2)cc1 | 22.4 µM (inactive) | 65.2 µM | 30.2 µM (inactive) | 27.3 µM (inactive) | 47.6 µM (inactive) | 57 µM (inactive) | 61 µM (inactive) |  | 19.4 µM (inactive) |  | 18.8 µM (inactive) | 30.5 µM (inactive) | 20.7 µM (inactive) | 98.4 µM (inactive) | 7.41 µM (inactive) | 13.7 µM (inactive) |
| Nc1nc(NC2C=C(CO)C(O)C2O)c([N+](=O)[O-])c(=O)[nH]1 (stereo unspecified) | > 100 µM (inactive) | > 100 µM | > 100 µM (inactive) | > 100 µM (inactive) | > 100 µM (inactive) | > 100 µM (inactive) | > 100 µM (inactive) |  | > 100 µM (inactive) | > 100 µM (inactive) | > 100 µM (inactive) | > 100 µM (inactive) | > 100 µM (inactive) | > 100 µM (inactive) | > 100 µM (inactive) | > 100 µM (inactive) |
